Laboratory results published in patent US11000491B2, “Amino-aryl-benzamide compounds and methods of use thereof” (HEPANOVA, INC., priority 2017, dated 2021).
pEC50: −log10 of the molar value. Read-outs that look alike come from different tables or passages of the source.

Key:
Type in all cases: cell-based
[1] = system: Huh7 cells; experiment: LD content in Huh7 cells pre-treated with insulin, Oil-Red-O staining, absorbance OD 540 nm; conditions: procedure of Example 3, read-out: LD content inhibition (EC50)
Method: FIG. 6. […] Spectrophotometric absorbance of untreated or HPN-01-treated Huh7 cells pre-incubated with 1 mM insulin is shown. LD contents were stained using Oil Red O, and measured by determining spectrophotometer absorbance under OD 540 nm.
Huh7 cells were mock treated or pre-treated with 1 mM insulin, and subsequently treated with indicated amounted of HPN-01.
The ability of each HPN-01 derivative obtained from the synthesis methods described above, to inhibit LD formation in hepatocytes, was tested using the procedure outlined in Example 3. The results of this analysis are shown below in Table 6 (second column).

[2] = system: SREBP-1; experiment: SREBP-1 expression in cultured primary human hepatocytes; conditions: procedure of Example 6, read-out: SREBP-1 mRNA inhibition (EC50)
Method: (§1) FIG. 9. Effects of HPN-01 on the expression of SREBP-1 (master regulator of hepatic glucose metabolism and fatty acid synthesis) and SREBP-2 (master regulator of cholesterol homeostasis in cells) in cultured primary human hepatocytes.
(§2) Cultured primary human hepatocytes were treated with various concentrations of HPN-01, and the expression levels of SREBP-1 (master regulator of hepatic glucose metabolism and fatty acid synthesis) and SREBP-2 (master regulator of cholesterol homeostasis in cells) were subsequently determined.
(§3) The ability of each HPN-01 derivative obtained from the synthesis methods described above, to inhibit SREBP-1 and SREBP-2 mRNA expression in primary hepatocytes, was tested using the procedure outlined in Example 6. The results of this analysis are shown in Table 6 (third and fourth columns).

[3] = system: SREBP-2; experiment: SREBP-2 expression in cultured primary human hepatocytes; conditions: procedure of Example 6, read-out: SREBP-2 mRNA inhibition (EC50)
Method: as §1, §2, §3

[4] = Homo sapiens, Huh-7, Huh7 cells

SMILES: CCCC(=O)Oc1cccc(/C=C/c2cc(C(N)=O)c(N)c(-c3ccc(S(N)(=O)=O)cc3)c2)c1 [HPN-01111, (E)-3-(2-(6-amino-5-carbamoyl-4′-sulfamoyl-[1,1′-biphenyl]-3-yl)vinyl)phenyl butyrate]
- pEC50 [1, 4]: 6.12
- pEC50 ([2]; Homo sapiens, Hepatocyte): 5.68
- pEC50 ([3]; Homo sapiens, Hepatocyte): 5.61

SMILES: CCCC(=O)Nc1cccc(/C=C/c2cc(C(N)=O)c(N)c(-c3ccc(S(N)(=O)=O)cc3)c2)c1 [HPN-01112, (E)-2-amino-5-(3-butyramidostyryl)-4′-sulfamoyl-[1,1′-biphenyl]-3-carboxamide]
- pEC50 [1, 4]: 6.19
- pEC50 ([2]; Homo sapiens, Hepatocyte): 5.69
- pEC50 ([3]; Homo sapiens, Hepatocyte): 5.87

SMILES: NC(=O)c1cc(/C=C/C(=O)O)cc(-c2ccc(S(N)(=O)=O)cc2)c1N [HPN-01113, (E)-3-(6-amino-5-carbamoyl-4′-sulfamoyl-[1,1′-biphenyl]-3-yl)acrylic acid]
- pEC50 [1, 4]: 6.48
- pEC50 ([2]; Homo sapiens, Hepatocyte): 6.16
- pEC50 ([3]; Homo sapiens, Hepatocyte): 6.01

SMILES: CCOC(=O)/C=C/c1cc(C(N)=O)c(N)c(-c2ccc(S(N)(=O)=O)cc2)c1 [HPN-01115, ethyl (E)-3-(6-amino-5-carbamoyl-4′-sulfamoyl-[1,1′-biphenyl]-3-yl)acrylate]
- pEC50 [1, 4]: 5.63
- pEC50 ([2]; Homo sapiens, Hepatocyte): 5.19
- pEC50 ([3]; Homo sapiens, Hepatocyte): 5.22

SMILES: CC(C)OC(=O)/C=C/c1cc(C(N)=O)c(N)c(-c2ccc(S(N)(=O)=O)cc2)c1 [HPN-01116, isopropyl (E)-3-(6-amino-5-carbamoyl-4′-sulfamoyl-[1,1′-biphenyl]-3-yl)acrylate]
- pEC50 [1, 4]: 6.00
- pEC50 ([2]; Homo sapiens, Hepatocyte): 5.43
- pEC50 ([3]; Homo sapiens, Hepatocyte): 5.30

SMILES: CCCCCCCOC(=O)/C=C/c1cc(C(N)=O)c(N)c(-c2ccc(S(N)(=O)=O)cc2)c1 [HPN-01118, heptyl (E)-3-(6-amino-5-carbamoyl-4′-sulfamoyl-[1,1′-biphenyl]-3-yl)acrylate]
- pEC50 [1, 4]: 6.08
- pEC50 ([2]; Homo sapiens, Hepatocyte): 5.63
- pEC50 ([3]; Homo sapiens, Hepatocyte): 5.60

SMILES: NC(=O)c1cc(/C=C/C(=O)OCc2ccccc2)cc(-c2ccc(S(N)(=O)=O)cc2)c1N [HPN-01120, benzyl (E)-3-(6-amino-5-carbamoyl-4′-sulfamoyl-[1,1′-biphenyl]-3-yl)acrylate]
- pEC50 [1, 4]: 6.17
- pEC50 ([2]; Homo sapiens, Hepatocyte): 5.19
- pEC50 ([3]; Homo sapiens, Hepatocyte): 5.29

SMILES: NC(=O)c1cc(/C=C/C(=O)Nc2ccc(C(=O)O)cc2)cc(-c2ccc(S(N)(=O)=O)cc2)c1N [HPN-01121, (E)-4-(3-(6-amino-5-carbamoyl-4′-sulfamoyl-[1,1′-biphenyl]-3-yl)acrylamido)benzoic acid]
- pEC50 [1, 4]: 5.67
- pEC50 ([2]; Homo sapiens, Hepatocyte): 5.18
- pEC50 ([3]; Homo sapiens, Hepatocyte): 5.09

SMILES: NC(=O)c1cc(/C=C/C(=O)Nc2ccc(O)cc2)cc(-c2ccc(S(N)(=O)=O)cc2)c1N [HPN-01122, (E)-2-amino-5-(3-((4-hydroxyphenyl)amino)-3-oxoprop-1-en-1-yl)-4′-sulfamoyl-[1,1′-biphenyl]-3-carboxamide]
- pEC50 [1, 4]: 5.61
- pEC50 ([2]; Homo sapiens, Hepatocyte): 5.02
- pEC50 ([3]; Homo sapiens, Hepatocyte): 5.14

SMILES: NC(=O)c1cc(/C=C/C(=O)OCCc2ccccc2)cc(-c2ccc(S(N)(=O)=O)cc2)c1N [HPN-01123, phenethyl (E)-3-(6-amino-5-carbamoyl-4′-sulfamoyl-[1,1′-biphenyl]-3-yl)acrylate]
- pEC50 [1, 4]: 6.05
- pEC50 ([2]; Homo sapiens, Hepatocyte): 5.46
- pEC50 ([3]; Homo sapiens, Hepatocyte): 5.35

SMILES: Cc1ccc(NC(=O)/C=C/c2cc(C(N)=O)c(N)c(-c3ccc(S(N)(=O)=O)cc3)c2)cc1 [HPN-01126, (E)-2-amino-5-(3-oxo-3-(p-tolylamino)prop-1-en-1-yl)-4′-sulfamoyl-[1,1′-biphenyl]-3-carboxamide]
- pEC50 [1, 4]: 6.08
- pEC50 ([2]; Homo sapiens, Hepatocyte): 5.61
- pEC50 ([3]; Homo sapiens, Hepatocyte): 5.34

SMILES: Cc1cccc(NC(=O)/C=C/c2cc(C(N)=O)c(N)c(-c3ccc(S(N)(=O)=O)cc3)c2)c1 [HPN-01127, (E)-2-amino-5-(3-oxo-3-(m-tolylamino)prop-1-en-1-yl)-4═-sulfamoyl-[1,1′-biphenyl]-3-carboxamide]
- pEC50 ([1]; Huh7 cells): 6.48
- pEC50 [2]: 5.93
- pEC50 [3]: 5.47

SMILES: CCOc1ccc(NC(=O)/C=C/c2cc(C(N)=O)c(N)c(-c3ccc(S(N)(=O)=O)cc3)c2)cc1 [HPN-01129, (E)-2-amino-5-(3-((4-ethoxyphenyl)amino)-3-oxoprop-1-en-1-yl)-4′-sulfamoyl-[1,1′-biphenyl]-3-carboxamide]
- pEC50 [1, 4]: 6.54
- pEC50 ([2]; Homo sapiens, Hepatocyte): 5.77
- pEC50 ([3]; Homo sapiens, Hepatocyte): 5.51

SMILES: NC(=O)c1cc(/C=C/C(=O)Nc2ccc(Cl)cc2)cc(-c2ccc(S(N)(=O)=O)cc2)c1N [HPN-01130, (E)-2-amino-5-(3-((4-chlorophenyl)amino)-3-oxoprop-1-en-1-yl)-4′-sulfamoyl-[1,1′-biphenyl]-3-carboxamide]
- pEC50 [1, 4]: 7.22
- pEC50 ([2]; Homo sapiens, Hepatocyte): 6.01
- pEC50 ([3]; Homo sapiens, Hepatocyte): 5.74

SMILES: NC(=O)c1cc(/C=C/C(=O)NCc2ccccc2)cc(-c2ccc(S(N)(=O)=O)cc2)c1N [HPN-01131, (E)-2-amino-5-(3-(benzylamino)-3-oxoprop-1-en-1-yl)-4′-sulfamoyl-[1,1′-biphenyl]-3-carboxamide]
- pEC50 [1, 4]: 6.42
- pEC50 ([2]; Homo sapiens, Hepatocyte): 5.89
- pEC50 ([3]; Homo sapiens, Hepatocyte): 5.65

SMILES: NC(=O)c1cc(C#CCO)cc(-c2ccc(S(N)(=O)=O)cc2)c1N [HPN-01201, 2-amino-5-(3-hydroxyprop-1-ynyl)-4′-sulfamoylbiphenyl-3-carboxamide]
- pEC50 [1, 4]: 5.92
- pEC50 ([2]; Homo sapiens, Hepatocyte): 5.50
- pEC50 ([3]; Homo sapiens, Hepatocyte): 5.16

SMILES: NC(=O)c1cc(C#Cc2ccccc2)cc(-c2ccc(S(N)(=O)=O)cc2)c1N [HPN-01202, 2-amino-5-(phenylethynyl)-4′-sulfamoylbiphenyl-3-carboxamide]
- pEC50 [1, 4]: 6.54
- pEC50 ([2]; Homo sapiens, Hepatocyte): 6.19
- pEC50 ([3]; Homo sapiens, Hepatocyte): 6.05

SMILES: COc1ccc(C#Cc2cc(C(N)=O)c(N)c(-c3ccc(S(N)(=O)=O)cc3)c2)cc1 [HPN-01204, 2-amino-5-((4-methoxyphenyl)ethynyl)-4′-sulfamoylbiphenyl-3-carboxamide]
- pEC50 [1, 4]: 6.00
- pEC50 ([2]; Homo sapiens, Hepatocyte): 5.38
- pEC50 ([3]; Homo sapiens, Hepatocyte): 5.34

SMILES: NC(=O)c1cc(C#Cc2ccc(Cl)cc2)cc(-c2ccc(S(N)(=O)=O)cc2)c1N [HPN-01205, 2-amino-5-((4-chlorophenyl)ethynyl)-4′-sulfamoyl-[1,1′-biphenyl]-3-carboxamide]
- pEC50 [1, 4]: 6.28
- pEC50 ([2]; Homo sapiens, Hepatocyte): 5.76
- pEC50 ([3]; Homo sapiens, Hepatocyte): 5.68

SMILES: NC(=O)c1cc(C#Cc2ccc(Br)cc2)cc(-c2ccc(S(N)(=O)=O)cc2)c1N [HPN-01207, 2-amino-5-((4-bromophenyl)ethynyl)-4′-sulfamoyl-[1,1′-biphenyl]-3-carboxamide]
- pEC50 [1, 4]: 6.01
- pEC50 ([2]; Homo sapiens, Hepatocyte): 5.71
- pEC50 ([3]; Homo sapiens, Hepatocyte): 5.56

SMILES: NC(=O)c1cc(C#Cc2cccc(Br)c2)cc(-c2ccc(S(N)(=O)=O)cc2)c1N [HPN-01208, 2-amino-5-((3-bromophenyl)ethynyl)-4′-sulfamoyl-[1,1′-biphenyl]-3-carboxamide]
- pEC50 [1, 4]: 5.77
- pEC50 ([2]; Homo sapiens, Hepatocyte): 5.49
- pEC50 ([3]; Homo sapiens, Hepatocyte): 5.24

SMILES: C[Si](C)(C)C#Cc1cc(C(N)=O)c(N)c(-c2ccc(S(N)(=O)=O)cc2)c1 [HPN-01209, 2-amino-4′-sulfamoyl-5-((trimethylsilyl)ethynyl)-[1,1′-biphenyl]-3-carboxamide]
- pEC50 [1, 4]: 6.09
- pEC50 ([2]; Hepatocyte): 5.63
- pEC50 ([3]; Hepatocyte): 5.70

SMILES: NC(=O)c1cc(C#CCOC(=O)c2ccccc2Cl)cc(-c2ccc(S(N)(=O)=O)cc2)c1N [HPN-01210, 3-(6-amino-5-carbamoyl-4′-sulfamoyl-[1,1′-biphenyl]-3-yl)prop-2-yn-1-yl 2-chlorobenzoate]
- pEC50 [1, 4]: 6.28
- pEC50 ([2]; Homo sapiens, Hepatocyte): 5.72
- pEC50 ([3]; Homo sapiens, Hepatocyte): 5.53

SMILES: NC(=O)c1cc(C#CCOC(=O)c2ccccc2Br)cc(-c2ccc(S(N)(=O)=O)cc2)c1N [HPN-01211, 3-(6-amino-5-carbamoyl-4′-sulfamoyl-[1,1′-biphenyl]-3-yl)prop-2-yn-1-yl 2-bromobenzoate]
- pEC50 [1, 4]: 6.11
- pEC50 ([2]; Homo sapiens, Hepatocyte): 5.42
- pEC50 ([3]; Homo sapiens, Hepatocyte): 5.15
